From patent US20230127202A1, “LONG-TERM PROBIOTIC BACTERIAL STORAGE AT AMBIENT TEMPERATURE” (CORNELL UNIVERSITY, priority 2021, published 2023)

System: LGG isolates
Assay: Antimicrobial susceptibility (MIC) test, Sensititre COMPGP1F gram-positive panel, CLSI interpretation
Assay type: cell-based, Lactobacillus rhamnosus GG
Conditions: all LGG isolates after heat treatment and storage
Protocol: Antimicrobial susceptibility or minimum inhibitory concentration (MIC) test was performed using the Sensititre® system COMPGP1F gram-positive systemic panel. The test used the Clinical and Laboratory Standards Institute (CLSI) guidelines for interpretation of MIC values. All of the isolates were examined for susceptibility to 23 antimicrobial agents included in the gram-positive panel of the National Antimicrobial Resistance Monitoring System (NARMS), including amikacin, ampicillin, augmentin, cefazolin, cefovecin, cefpodoxime, cephalothin, chloramphenicol, clindamycin, doxycycline, enrofloxacin, erythromycin, gentamicin, imipenem, marbofloxacin, minocycline, nitrofurantoin, oxacillin + 2% NaCl, penicillin, pradofloxacin, rifampin, tetracycline, trim/sulfa.

Row | Compound | antimicrobial sensitivity of the isolates (CLSI interpretation of MIC)
1 | CC1(C)S[C@@H]2[C@H](NC(=O)[C@H](N)c3ccccc3)C(=O)N2[C@H]1C(=O)O [ampicillin] | intermediate sensitivity
2 | Cc1nnc(SCC2=C(C(=O)O)N3C(=O)[C@@H](NC(=O)Cn4cnnn4)[C@H]3SC2)s1 [cefazolin] | resistance
3 | CC[C@H]1OC(=O)[C@H](C)[C@@H](O[C@H]2C[C@@](C)(OC)[C@@H](O)[C@H](C)O2)[C@H](C)[C@@H](O[C@@H]2O[C@H](C)C[C@H](N(C)C)[C@H]2O)[C@](C)(O)C[C@@H](C)C(=O)[C@H](C)[C@@H](O)[C@]1(C)O [erythromycin] | susceptible
4 | augmentin | susceptible
5 | oxacillin [oxacillin + 2% NaCl] | susceptible
6 | penicillin | resistance

System: Lactobacillus rhamnosus GG (LGG, ATCC 53103)
Assay: Bacterial survivability test (colony count) of LGG stored in food-grade oils at room temperature
Assay type: physicochemical
Conditions: under all conditions
Protocol: PBS at pH 7.4 was used as a control for each temperature. Each individual vial containing 20 mL of oil was heated to reach the desired temperature and the temperature equilibrated for 15-20 minutes. To each heated vial, 0.05 g of LGG powder was added. For prebiotic treatment, 0.05 g of inulin were added before the addition of LGG. The vial containing the oil-bacteria mixture was held at temperature for 1 minute with gentle stirring. Finally, the vial was taken out of the oil bath and cooled to room temperature over a range of 25 to 45 minutes depending on the heating treatments. As control samples, the LGG powder was added to each type of oil and PBS (pH 7.4) with the samples not heated. FIG. 1A illustrates the experimental set up for the heat treatment.
To prevent bacterial growth during storage of probiotics in aqueous solutions, oil was used as a barrier to water penetration and thus serves to preserve and prevent spoilage of the probiotic products. Before the storage of bacteria in oil, the LGG concentration in each type of oil was quantified and recorded as the initial concentration. […] The control medium was 20 mL of PBS at pH 7.4. For the control sample, 0.05 g of the bacteria were added to PBS and, after mixing, cultured on MRS agar plates. […] The survivability of the bacteria was assessed at specific time points over a year using the colony count technique. […]

Row | Compound | effect on survival rates of the bacteria
7 | inulin | reduced the survival rates
